Literature values in patent US7195882B2, “Monoclonal antibodies specific for buprenorphine and metabolites thereof” (priority 2003, dated 2007).

Settings: in vivo

For `CO[C@]12CC[C@@]3(C[C@@H]1[C@](C)(O)C(C)(C)C)[C@H]1Cc4ccc(O[C@@H]5O[C@H](C(=O)O)[C@@H](O)[C@H](O)[C@H]5O)c5c4[C@@]3(CCN1CC1CC1)[C@H]2O5` [buprenorphine glucuronide, buprenorphine 3-O-β-D-glucuronide], the appearance in urine is given as 1 to 2 days.
